Values after ≈ are worked out from the molar mass of the structure shown. Values joined by “and” are separate entries in the source; they are usually repeats but may differ in a detail not shown here. Equal entries are not always repeated.
How the values were obtained:
Assay type in all cases: physicochemical
[1] = Flow properties (bulk density, tapped density); conditions: for Hausner Factor: Tapped density/Bulk density; for Carr's Index: calculated from tapped and bulk density
Protocol: The bulk density and the tapped density of an HBr salt sample as obtained according to the above method was determined applying standard methods. • Bulk density: 0.19 g/cm^3 • Tapped density: 0.25 g/cm^3 • From this, the Carr's Index characterizing flow properties can be calculated ([…]). The index is 24%.

[2] = Solubility and pH in water for injection (24 hours equilibration, 25° C.); conditions: for pH value of the suspension/solution after 24 hours: in water for injection, determined at 25° C.; for solubility at 24 h: water for injection, 24 hours of equilibration, 25° C.
Protocol: 5-MeO-DMT freebase and 5-MeO-DMT hydrobromide (30 mg) were weighed out into crystallisation tubes, water for injection (WFI; 150 μL, 5 vols) was charged and samples were left to equilibrate (25° C.) over 24 hours.
The free base led to a suspension. An additional 850 μl of water was added. The mixture was still a suspension. […] The pH value of the suspension after 24 hours was 9.93, determined at 25° C.
In the case of 5-MeO-DMT HBr, a solution was obtained. […] The pH value of the solution after 24 hours was 6.84, determined at 25° C.

[3] = Particle size distribution by laser light scattering; conditions: sample weight 800 mg; listed as HBr salt, hydrobromide
Protocol: The particle size distribution of a sample obtained as in the above example was determined using a laser light scattering method.

[4] = Dynamic vapor sorption (DVS) analysis; conditions: for further increase between 60% RH and 90% RH / water gain up to 60% RH / total water absorption over the humidity range: first sorption cycle, hydrobromide; for further increase between 60% RH and 90% RH: 60% RH to 90% RH; for total water absorption over the humidity range: up to 90% RH
Text: Dynamic vapor sorption (DVS) data was collected for both 5-MeO DMT HBr Pattern A and Pattern B. The DSV data are shown in FIG. 10 (Pattern A) und FIG. 11 (Pattern B). DVS profiles are almost identical.

COc1ccc2[nH]cc(CCN(C)C)c2c1 [free base, 5-Methoxy-N,N-dimethyltryptamine, reference compound]
Bulk density [1]: 0.32 g/mL
Tapped density [1]: 0.54 g/mL
Hausner Factor [1]: 1.68
Carr's Index [1]: 41%
pH value of the suspension/solution after 24 hours [2]: 9.93
solubility at 24 h ([2]; pH 9.93, thermodynamic from solid): 3290 µg/mL (≈ 15.1 mM)

Br.COc1ccc2[nH]cc(CCN(C)C)c2c1 [5-MeO-DMT HBr, 5-methoxy-N,N-dimethyltryptamine hydrobromide]
Bulk density [1]: 0.19 g/mL
Tapped density [1]: 0.25 g/mL
Hausner Factor [1]: 1.31
Carr's Index [1]: 24%
Dv10 [3]: 57.8 μm and 60.8 μm and 65.1 μm
Dv90 [3]: 613 μm and 630 μm and 643 μm
pH value of the suspension/solution after 24 hours [2]: 6.84
solubility at 24 h ([2]; pH 6.84, thermodynamic from solid): > 200000 µg/mL

Br.COc1ccc2[nH]cc(CCN(C)C)c2c1 [5-MeO-DMT HBr Pattern B, 5-methoxy-N,N-dimethyltryptamine hydrobromide]
modification of form following equilibration at extremes of relative humidity [4]: Neither form showed any modification
further increase between 60% RH and 90% RH [4]: 1.57 wt %
water gain up to 60% RH [4]: 0.14%
total water absorption over the humidity range [4]: 1.71 wt %

Br.COc1ccc2[nH]cc(CCN(C)C)c2c1 [5-MeO-DMT HBr Pattern A, 5-methoxy-N,N-dimethyltryptamine hydrobromide]
modification of form following equilibration at extremes of relative humidity [4]: Neither form showed any modification
further increase between 60% RH and 90% RH [4]: 1.56 wt %
water gain up to 60% RH [4]: 0.13%
total water absorption over the humidity range [4]: 1.7 wt %

From patent US12172960B2, “Organic compound salts” (priority 2022, dated 2024)
